# Like-named read-outs stand apart in the source and are kept apart here.
# Experiments:
# PmSiaT = target: T1, PmSiaT (Proteus mirabilis, UniProt B4EZY7); test: nanoDSF thermal shift assay, PmSiaT; assay type: binding; conditions: for Average 2 / Average 3 / Replicate 1 / Replicate 2 / Replicate 3 / Average 1: PmSiaT Tm; for Average 2: average of experiment 2; for Average 3: average of experiment 3; for Replicate 1: experiment 1, second capillary; for Replicate 2: experiment 2, second capillary; for Replicate 3: experiment 3, second capillary; for Tm 1: experiment 1, first capillary; for Tm2: experiment 2, first capillary; for Tm 3: experiment 3, first capillary; for ΔTm at 1250 µM: read-out: ΔTm average overall; for Average 1: average of experiment 1
# T1 construct: made in house
# T1 sequence (B4EZY7 1-496): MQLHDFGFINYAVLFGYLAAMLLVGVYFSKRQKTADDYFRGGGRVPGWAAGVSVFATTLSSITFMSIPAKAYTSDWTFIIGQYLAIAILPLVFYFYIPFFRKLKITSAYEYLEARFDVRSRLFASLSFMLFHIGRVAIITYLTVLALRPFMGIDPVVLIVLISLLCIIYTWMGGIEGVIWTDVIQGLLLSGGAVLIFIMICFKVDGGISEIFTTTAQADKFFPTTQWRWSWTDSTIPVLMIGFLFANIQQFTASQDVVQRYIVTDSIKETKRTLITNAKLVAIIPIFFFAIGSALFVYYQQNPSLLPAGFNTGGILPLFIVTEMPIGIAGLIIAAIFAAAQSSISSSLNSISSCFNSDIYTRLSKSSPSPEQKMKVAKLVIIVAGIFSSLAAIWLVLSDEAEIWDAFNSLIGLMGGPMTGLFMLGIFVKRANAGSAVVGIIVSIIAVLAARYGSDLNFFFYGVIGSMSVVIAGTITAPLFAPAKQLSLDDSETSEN
# Experimental: (§1) Nano-differential scanning fluorimetry (nanoDSF) is a high-throughput method that relies on the thermal stabilization of the folded protein state by a bound ligand.[33]
# (§2) The melting points of protein–inhibitor complexes were measured on a Prometheus NT.48 instrument from NanoTemper Technologies. Solutions containing the protein at 2 μM in phosphate buffered saline with 0.0174% (w/v) dodecylmaltoside (DDM) and the ligand at 1.25 mM were loaded onto standard capillaries by NanoTemper. The temperature was increased from 25 to 95 °C at a ramp rate of 1 °C/min. The fluorescence was recorded at 330 and 350 nm and as a ratio of the two wavelengths.
# (§3) The intensity ratio and its first derivative were calculated using manufacturer’s software (PR.ThermControl, version 2.1.2).
# (§4) The melting temperatures have been measured in 3 separate experiments. In each experiment, two capillaries were included per compound, having therefore 2 technical replicates per experiment. In the table all data is presented. Tm1 and Replicate 1 represent the two replicates of the first experiment. Average 1 is the average between Tm 1 and Replicate 1. ΔTm 1 is the thermal shift when compared to the Tm of Neu5Ac. This is calculated from Average 1. The ΔTm presented in the article are the ΔTm average overall, which represent the overall average of the averages from the three experiments. The standard deviation (SD) is calculated from the […]
# SaSiaT = SaSiaT (Staphylococcus aureus, UniProt A0A0H2XJ46); test: nanoDSF thermal shift assay, SaSiaT; assay type: binding; conditions: for Average 1 / Average 2 / Average 3 / Replicate 1 / Replicate 2 / Replicate 3: SaSiaT Tm; for Average 1: average of experiment 1; for Average 2: average of experiment 2; for Average 3: average of experiment 3; for Replicate 1: experiment 1, second capillary; for Replicate 1 / Replicate 2 / Replicate 3 / Tm 1 / Tm2 / Tm 3 / Overall average (Tm): 1.25 mM; for Replicate 2: experiment 2, second capillary; for Replicate 3: experiment 3, second capillary; for Tm 1: experiment 1, first capillary; for Tm2: experiment 2, first capillary; for Tm 3: experiment 3, first capillary; for Overall average (Tm): three experiments
# Experimental: as §1, §2, §3, §4
# [1] = PmSiaT, experiment 1, vs Neu5Ac, read-out: ΔTm 1
# [2] = PmSiaT, experiment 2, vs Neu5Ac, read-out: ΔTm 2
# [3] = PmSiaT, experiment 3, vs Neu5Ac, read-out: ΔTm 3
# [4] = PmSiaT, three experiments, 1.25 mM
# [5] = PmSiaT, three experiments, vs Neu5Ac, 1.25 mM
# SaSiaT, sequence (A0A0H2XJ46 entry or part of it): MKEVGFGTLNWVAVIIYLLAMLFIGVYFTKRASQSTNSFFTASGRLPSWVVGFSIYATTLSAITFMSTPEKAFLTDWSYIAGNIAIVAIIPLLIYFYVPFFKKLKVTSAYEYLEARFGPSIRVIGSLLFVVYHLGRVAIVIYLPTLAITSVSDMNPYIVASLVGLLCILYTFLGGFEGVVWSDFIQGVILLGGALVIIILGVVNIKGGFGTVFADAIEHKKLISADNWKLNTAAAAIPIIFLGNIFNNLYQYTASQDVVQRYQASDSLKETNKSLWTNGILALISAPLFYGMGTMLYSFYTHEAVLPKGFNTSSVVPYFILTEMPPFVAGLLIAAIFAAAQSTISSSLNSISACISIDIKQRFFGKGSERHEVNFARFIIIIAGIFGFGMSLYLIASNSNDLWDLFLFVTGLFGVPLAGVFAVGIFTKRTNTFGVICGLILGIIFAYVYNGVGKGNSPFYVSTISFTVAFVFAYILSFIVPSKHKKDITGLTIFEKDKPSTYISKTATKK
SMILES,Average 2 (PmSiaT) [°C],Average 3 (PmSiaT) [°C],Replicate 1 (PmSiaT; 1.25 mM) [°C],Replicate 2 (PmSiaT; 1.25 mM) [°C],Replicate 3 (PmSiaT; 1.25 mM) [°C],"Tm 1 (PmSiaT; PmSiaT, 1.25 mM) [°C]","Tm2 (PmSiaT; PmSiaT, 1.25 mM) [°C]","Tm 3 (PmSiaT; PmSiaT, 1.25 mM) [°C]",Tm average overall (PmSiaT; [4]) [°C],Average 1 (SaSiaT) [°C],Average 2 (SaSiaT) [°C],Average 3 (SaSiaT) [°C],Replicate 1 (SaSiaT) [°C],Replicate 2 (SaSiaT) [°C],Replicate 3 (SaSiaT) [°C],Tm 1 (SaSiaT; SaSiaT) [°C],Tm2 (SaSiaT; SaSiaT) [°C],Tm 3 (SaSiaT; SaSiaT) [°C],Overall average (Tm) (SaSiaT; SaSiaT) [°C],Average 1 (PmSiaT) [°C],other results
CCC(=O)NC1C(O)CC(O)(C(=O)O)OC1C(O)C(O)CO (stereo not drawn) [Compound 6a],46.8,46.7,46.8,46.8,46.6,46.8,46.8,46.7,46.8,40.8,41.9,42.2,40.9,41.8,42.1,40.8,42.0,42.3,41.6,–,ΔTm (PmSiaT; [1]): -2.2 °C; ΔTm (PmSiaT; [2]): -2.4 °C; ΔTm (PmSiaT; [3]): -2.6 °C; ΔTm at 1250 µM (PmSiaT; [5]): -2.4 °C
CC(=O)NC1C(O)CC(O)(C(=O)O)OC1C(O)C(O)CN=[N+]=[N-] (stereo not drawn) [Compound 8g],46.1,46.0,45.9,46.2,46.1,46.0,46.0,45.9,46.0,48.7,47.4,48.5,42.7,47.4,48.3,–,47.4,48.6,48.2,46.0,–
"O=C(CO)N[C@H]1[C@H]([C@H](O)[C@H](O)CO)OC(O)(C(=O)O)C[C@@H]1O (stereo partly drawn) [Neu5Gc, 5-N-glycolyl neuraminic acid, reference compound]",48.1,48.0,48.0,48.0,48.0,47.9,48.1,48.0,48.0,53.3,53.3,53.6,53.3,53.4,53.6,53.3,53.2,53.6,53.4,48.0,ΔTm at 1250 µM (PmSiaT): -1.2 °C
CC(=O)NC1C(O)CC(O)(C(=O)O)OC1C(O)C(O)CI (stereo not drawn) [Compound 8e],47.2,47.3,46.7,47.2,47.2,47.2,47.3,47.3,47.1,49.3,49.0,49.5,49.3,48.9,49.1,49.2,49.0,49.9,49.3,46.9,ΔTm (PmSiaT; [1]): -2.1 °C; ΔTm (PmSiaT; [2]): -2 °C; ΔTm (PmSiaT; [3]): -2 °C; ΔTm at 1250 µM (PmSiaT; [5]): -2 °C
O=C(CF)NC1C(O)CC(O)(C(=O)O)OC1C(O)C(O)CO (stereo not drawn) [Compound 6f],47.6,47.4,47.4,47.6,47.3,47.4,47.7,47.4,47.5,52.0,51.2,51.9,52.0,51.2,51.8,52.0,51.2,52.1,51.7,47.4,ΔTm at 1250 µM (PmSiaT): -1.7 °C
O=C(NC1C(O)CC(O)(C(=O)O)OC1C(O)C(O)CO)c1ccccc1 (stereo not drawn) [Compound 6d],45.9,45.7,45.2,45.9,45.9,45.1,45.8,45.5,45.6,46.2,45.6,46.0,46.1,45.8,45.6,46.2,45.4,46.4,45.9,45.2,ΔTm (PmSiaT; [1]): -3.8 °C; ΔTm (PmSiaT; [2]): -3.3 °C; ΔTm (PmSiaT; [3]): -3.6 °C; ΔTm at 1250 µM (PmSiaT; [5]): -3.6 °C
CC(C)(C)C(=O)NC1C(O)CC(O)(C(=O)O)OC1C(O)C(O)CO (stereo not drawn) [Compound 6c],46.7,46.7,46.3,46.7,46.6,46.6,46.7,46.7,46.6,43.5,44.2,43.8,43.4,44.1,43.6,43.6,44.2,43.9,43.8,–,ΔTm (PmSiaT; [1]): -2.5 °C; ΔTm (PmSiaT; [2]): -2.5 °C; ΔTm (PmSiaT; [3]): -2.6 °C; ΔTm at 1250 µM (PmSiaT; [5]): -2.5 °C
O=C(Cc1ccccc1)NC1C(O)CC(O)(C(=O)O)OC1C(O)C(O)CO (stereo not drawn) [Compound 6e],46.2,46.0,45.5,46.0,45.9,45.2,46.3,46.1,45.8,51.2,51.0,51.4,51.3,51.1,51.1,51.2,51.0,51.8,51.2,45.4,ΔTm (PmSiaT; [1]): -3.6 °C; ΔTm (PmSiaT; [2]): -3 °C; ΔTm (PmSiaT; [3]): -3.3 °C; ΔTm at 1250 µM (PmSiaT; [5]): -3.3 °C
CC(=O)NC1C(O)CC(O)(C(=O)O)OC1C(O)C(C)O (stereo not drawn) [Compound 8f],45.9,45.9,46.0,45.9,45.9,46.0,45.8,45.9,45.9,43.1,43.0,42.9,42.9,43.1,43.0,43.2,43.0,42.8,43.0,46.0,"binding / thermal stabilization in words (PmSiaT; PmSiaT, nanoDSF screen): complete loss of affinity; binding / thermal stabilization in words (SaSiaT; SaSiaT, nanoDSF screen): complete loss of affinity"
